Results on one molecule are retold here after PubChem BioAssay AID504934 (The Scripps Research Institute Molecular Screening Center, 2011).

Common to all, as to assay: PubChem AID 504934
Experiment [1] addresses Nuclear receptor subfamily 0 group B member 1 (Homo sapiens) (UniProt P51843). The conditions noted are these: nuclear receptor panel Gal4 luciferase reporter, DAX, at 10 µM. A general note: In a reporter assay the amount or activity of a reporter protein is the signal.
The subject of the next experiment is Coup-TF1. The conditions noted are these: nuclear receptor panel Gal4 luciferase reporter, at 10 µM.
In the next experiment the test system is Rev-erb a. The conditions noted are these: nuclear receptor panel Gal4 luciferase reporter, at 10 µM.
Another experiment relates to GCNR. The conditions noted are these: nuclear receptor panel Gal4 luciferase reporter, at 10 µM.
Another experiment relates to EAR-2 (COUP-TF3). The conditions noted are these: nuclear receptor panel Gal4 luciferase reporter, at 10 µM.
In experiment [2] the target is Hepatocyte nuclear factor 4-alpha (Homo sapiens) (UniProt P41235). The conditions noted are these: nuclear receptor panel Gal4 luciferase reporter, HNF4a, at 10 µM.
Sequence of Hepatocyte nuclear factor 4-alpha (Homo sapiens) (P41235 whole entry, looked up, the tested form may be a part): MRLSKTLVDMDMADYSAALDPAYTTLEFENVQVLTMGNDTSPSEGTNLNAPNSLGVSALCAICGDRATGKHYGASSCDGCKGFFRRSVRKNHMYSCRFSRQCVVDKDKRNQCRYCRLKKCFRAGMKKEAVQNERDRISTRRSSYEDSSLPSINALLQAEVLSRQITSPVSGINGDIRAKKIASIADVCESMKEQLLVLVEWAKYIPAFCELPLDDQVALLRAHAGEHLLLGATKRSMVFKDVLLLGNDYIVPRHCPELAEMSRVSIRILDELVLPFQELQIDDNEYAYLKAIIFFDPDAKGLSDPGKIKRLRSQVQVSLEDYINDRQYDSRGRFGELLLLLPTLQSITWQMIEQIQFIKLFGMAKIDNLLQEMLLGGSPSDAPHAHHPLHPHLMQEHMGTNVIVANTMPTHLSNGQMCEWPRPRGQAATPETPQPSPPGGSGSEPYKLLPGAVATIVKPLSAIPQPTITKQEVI
The subject of another experiment is THRb. The settings on record: nuclear receptor panel Gal4 luciferase reporter, at 10 µM.
For the next experiment, the system named is MR. The conditions noted are these: nuclear receptor panel Gal4 luciferase reporter, at 10 µM.
In another experiment the test system is CAR. The settings on record: nuclear receptor panel Gal4 luciferase reporter, at 10 µM.
A further experiment concerns ERRb. The conditions noted are these: nuclear receptor panel Gal4 luciferase reporter, at 10 µM.
Experiment [3] deals with Nuclear receptor subfamily 1 group I member 2 (Homo sapiens) (UniProt O75469). The conditions noted are these: nuclear receptor panel Gal4 luciferase reporter, PXR, at 10 µM.
Sequence of Nuclear receptor subfamily 1 group I member 2 (Homo sapiens) (O75469 whole entry, looked up, the tested form may be a part): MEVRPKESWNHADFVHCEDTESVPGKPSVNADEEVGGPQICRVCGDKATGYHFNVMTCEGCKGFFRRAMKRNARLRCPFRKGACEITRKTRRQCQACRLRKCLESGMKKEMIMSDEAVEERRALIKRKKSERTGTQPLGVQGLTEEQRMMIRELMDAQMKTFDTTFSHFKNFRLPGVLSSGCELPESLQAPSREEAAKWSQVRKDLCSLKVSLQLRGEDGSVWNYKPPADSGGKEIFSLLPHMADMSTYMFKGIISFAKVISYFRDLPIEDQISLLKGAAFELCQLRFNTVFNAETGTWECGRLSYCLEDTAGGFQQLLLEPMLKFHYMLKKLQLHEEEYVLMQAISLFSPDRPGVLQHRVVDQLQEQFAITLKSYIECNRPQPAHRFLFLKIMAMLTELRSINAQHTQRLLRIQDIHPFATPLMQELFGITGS
The next experiment deals with VDR. The conditions noted are these: nuclear receptor panel Gal4 luciferase reporter, at 10 µM.
In experiment [4] the target is Retinoic acid receptor RXR-alpha (Homo sapiens) (UniProt P19793). The conditions noted are these: nuclear receptor panel Gal4 luciferase reporter, RXRa, at 10 µM.
Sequence of Retinoic acid receptor RXR-alpha (Homo sapiens) (P19793 whole entry, looked up, the tested form may be a part): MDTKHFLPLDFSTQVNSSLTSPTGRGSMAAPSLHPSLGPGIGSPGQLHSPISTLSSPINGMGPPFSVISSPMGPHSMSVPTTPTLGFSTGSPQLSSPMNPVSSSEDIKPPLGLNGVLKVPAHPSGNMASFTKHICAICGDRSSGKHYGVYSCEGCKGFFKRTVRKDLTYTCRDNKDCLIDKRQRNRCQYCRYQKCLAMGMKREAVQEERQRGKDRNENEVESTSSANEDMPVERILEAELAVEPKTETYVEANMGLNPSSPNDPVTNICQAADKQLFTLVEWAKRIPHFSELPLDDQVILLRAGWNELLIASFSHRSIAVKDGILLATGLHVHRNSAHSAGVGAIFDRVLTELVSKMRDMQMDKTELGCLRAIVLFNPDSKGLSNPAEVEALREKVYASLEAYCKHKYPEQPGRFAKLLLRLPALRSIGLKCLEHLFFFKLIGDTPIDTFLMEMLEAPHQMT
For experiment [5], the target named is Peroxisome proliferator-activated receptor alpha (Homo sapiens) (UniProt Q07869). The conditions noted are these: nuclear receptor panel Gal4 luciferase reporter, PPARa, at 10 µM.
Sequence of Peroxisome proliferator-activated receptor alpha (Homo sapiens) (Q07869 whole entry, looked up, the tested form may be a part): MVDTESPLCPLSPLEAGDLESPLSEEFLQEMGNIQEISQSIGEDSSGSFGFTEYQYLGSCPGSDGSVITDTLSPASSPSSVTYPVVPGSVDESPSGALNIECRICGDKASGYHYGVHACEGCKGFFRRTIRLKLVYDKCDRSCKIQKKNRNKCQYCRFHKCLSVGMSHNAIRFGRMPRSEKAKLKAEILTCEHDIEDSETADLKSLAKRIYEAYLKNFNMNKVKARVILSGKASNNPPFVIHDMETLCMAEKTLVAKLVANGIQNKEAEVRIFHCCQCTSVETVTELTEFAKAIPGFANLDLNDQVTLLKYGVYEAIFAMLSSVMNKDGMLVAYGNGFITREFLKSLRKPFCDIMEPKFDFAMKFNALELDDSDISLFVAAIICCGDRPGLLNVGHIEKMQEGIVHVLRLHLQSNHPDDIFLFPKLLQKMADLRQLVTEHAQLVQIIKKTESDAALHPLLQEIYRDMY
Experiment [6] addresses Oxysterols receptor LXR-beta (Homo sapiens) (UniProt P55055). The conditions noted are these: nuclear receptor panel Gal4 luciferase reporter, LXRb, at 10 µM.
For the next experiment, the system named is RXRg. The settings on record: nuclear receptor panel Gal4 luciferase reporter, at 10 µM.
The test system of a further experiment is THRa. The conditions noted are these: nuclear receptor panel Gal4 luciferase reporter, at 10 µM.
Another experiment relates to pBIND-1. The settings on record: nuclear receptor panel Gal4 luciferase reporter, at 10 µM.
A further experiment has as its system Nurr1. The settings on record: nuclear receptor panel Gal4 luciferase reporter, at 10 µM.
For a further experiment, the system named is RARg. The conditions noted are these: nuclear receptor panel Gal4 luciferase reporter, at 10 µM.
In the next experiment the test system is RARb. The settings on record: nuclear receptor panel Gal4 luciferase reporter, at 10 µM.
Experiment [7] addresses Peroxisome proliferator-activated receptor gamma (Homo sapiens) (UniProt P37231). The conditions noted are these: nuclear receptor panel Gal4 luciferase reporter, PPARg, at 10 µM.
The target of experiment [8] is Bile acid receptor (Homo sapiens) (UniProt Q96RI1). The settings on record: nuclear receptor panel Gal4 luciferase reporter, FXR, at 10 µM.
Sequence of Bile acid receptor (Homo sapiens) (Q96RI1 whole entry, looked up, the tested form may be a part): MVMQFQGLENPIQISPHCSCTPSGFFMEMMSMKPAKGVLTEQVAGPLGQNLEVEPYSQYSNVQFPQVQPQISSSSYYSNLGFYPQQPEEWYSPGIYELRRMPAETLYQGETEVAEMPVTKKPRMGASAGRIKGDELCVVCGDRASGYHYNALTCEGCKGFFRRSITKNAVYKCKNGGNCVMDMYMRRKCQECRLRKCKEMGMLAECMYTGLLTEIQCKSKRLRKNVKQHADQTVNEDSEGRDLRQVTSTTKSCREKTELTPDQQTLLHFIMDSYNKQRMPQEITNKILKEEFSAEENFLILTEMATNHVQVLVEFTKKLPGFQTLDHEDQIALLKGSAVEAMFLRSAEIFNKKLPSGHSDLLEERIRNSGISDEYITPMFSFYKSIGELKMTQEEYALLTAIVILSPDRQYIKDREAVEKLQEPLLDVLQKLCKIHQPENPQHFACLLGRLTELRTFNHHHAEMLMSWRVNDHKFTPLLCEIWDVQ

Calls of active or inactive are those of the source. No rule for the calls is given here.

Sequence of Nuclear receptor subfamily 0 group B member 1 (Homo sapiens) (P51843 whole entry, looked up, the tested form may be a part): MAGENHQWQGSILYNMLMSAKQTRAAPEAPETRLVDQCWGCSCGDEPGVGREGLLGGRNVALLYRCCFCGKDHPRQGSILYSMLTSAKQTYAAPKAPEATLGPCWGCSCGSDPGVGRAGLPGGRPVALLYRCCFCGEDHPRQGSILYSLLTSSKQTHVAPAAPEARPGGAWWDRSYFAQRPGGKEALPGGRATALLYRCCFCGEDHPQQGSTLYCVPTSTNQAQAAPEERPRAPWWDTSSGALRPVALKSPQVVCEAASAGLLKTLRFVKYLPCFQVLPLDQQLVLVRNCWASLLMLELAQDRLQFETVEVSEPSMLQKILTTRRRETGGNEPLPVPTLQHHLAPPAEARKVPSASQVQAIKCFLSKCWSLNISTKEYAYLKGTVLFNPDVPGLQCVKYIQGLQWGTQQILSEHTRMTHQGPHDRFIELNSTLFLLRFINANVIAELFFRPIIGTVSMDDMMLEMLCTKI
Sequence of Oxysterols receptor LXR-beta (Homo sapiens) (P55055 whole entry, looked up, the tested form may be a part): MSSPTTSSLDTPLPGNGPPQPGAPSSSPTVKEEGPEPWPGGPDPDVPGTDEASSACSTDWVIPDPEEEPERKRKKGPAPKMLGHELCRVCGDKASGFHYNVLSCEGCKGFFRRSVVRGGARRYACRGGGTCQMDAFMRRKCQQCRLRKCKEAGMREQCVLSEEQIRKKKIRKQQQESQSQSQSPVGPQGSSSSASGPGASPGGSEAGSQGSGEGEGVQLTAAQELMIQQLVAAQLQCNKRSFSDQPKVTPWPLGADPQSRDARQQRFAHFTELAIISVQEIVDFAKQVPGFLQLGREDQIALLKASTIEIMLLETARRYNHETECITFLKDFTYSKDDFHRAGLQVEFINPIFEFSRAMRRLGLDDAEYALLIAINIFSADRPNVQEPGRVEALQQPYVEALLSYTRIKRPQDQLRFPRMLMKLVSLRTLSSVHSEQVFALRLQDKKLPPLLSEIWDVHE
Sequence of Peroxisome proliferator-activated receptor gamma (Homo sapiens) (P37231 whole entry, looked up, the tested form may be a part): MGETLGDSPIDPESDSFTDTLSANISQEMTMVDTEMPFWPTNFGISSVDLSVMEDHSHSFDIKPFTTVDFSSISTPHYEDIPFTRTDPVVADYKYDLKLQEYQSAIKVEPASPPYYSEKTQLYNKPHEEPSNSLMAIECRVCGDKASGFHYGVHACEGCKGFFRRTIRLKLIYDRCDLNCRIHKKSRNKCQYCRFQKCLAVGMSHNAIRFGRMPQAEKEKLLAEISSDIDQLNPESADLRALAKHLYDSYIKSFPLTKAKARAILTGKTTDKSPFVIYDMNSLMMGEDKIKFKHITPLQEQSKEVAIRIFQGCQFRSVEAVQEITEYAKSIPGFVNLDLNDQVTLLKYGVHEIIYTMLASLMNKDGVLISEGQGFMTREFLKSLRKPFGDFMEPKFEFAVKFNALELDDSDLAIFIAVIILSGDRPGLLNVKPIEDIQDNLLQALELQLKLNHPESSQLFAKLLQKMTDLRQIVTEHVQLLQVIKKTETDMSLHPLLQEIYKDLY

Regarding `O=c1cc(N2CCN(c3cccc(Cl)c3)CC2)[nH]c(=O)n1C1CCCCC1`, the fold change is 1.03 (inactive) in [1]; 0.72 in the experiment with Coup-TF1; 0.84 (inactive) in the experiment on Rev-erb a; 1.06 (inactive) with GCNR; 1 (inactive) in the experiment with EAR-2 (COUP-TF3); 0.61 in experiment [2]. Further, the fold change in the experiment with THRb is 1.06 (inactive); in the experiment on MR, 1.41; with CAR it was 0.38; in the experiment on ERRb, 1.02 (inactive); in [3], 1.26; in the experiment with VDR it was 0.83 (inactive). Moreover, the fold change is 0.75 in [4]; 1.11 (inactive) in experiment [5]; 1.9 (inactive) in [6]; 0.81 (inactive) in the experiment with RXRg; 1.69 with THRa; 1.28 with pBIND-1. For the same molecule, the fold change in the experiment with Nurr1 is 0.79; with RARg, 0.56; in the experiment on RARb, 0.54; in experiment [7], 0.86 (inactive); in experiment [8] it was 2.52.
